Laboratory results reported in patent US5045458A, “Antibiotics PB-6042S” (Shionogi & Co., Ltd., priority 1988, dated 1991).
Values after ≈ are worked out from the molar mass of the structure shown. Where two headings read alike, the source gives them in different places.

How the values were obtained:
E. lentum II-1 = assay: MIC against anaerobic bacteria; format: cell-based; conditions: Eggerthella lenta, II1
P. acens ATCC11827 = assay: MIC against anaerobic bacteria; format: cell-based
S. aureus SR14(R) = assay: MIC against aerobic bacteria; conditions: Staphylococcus aureus
B. adolescentis JCM1250 = assay: MIC against anaerobic bacteria; format: cell-based; conditions: Bifidobacterium adolescentis
B. fragilis GM7000 = assay: MIC against anaerobic bacteria; format: cell-based; conditions: Bacteroides fragilis
B. longum ATCC15707 = assay: MIC against anaerobic bacteria; format: cell-based; conditions: Bifidobacterium longum
B. vulgatus ATCC29327 = assay: MIC against anaerobic bacteria; format: cell-based; conditions: Phocaeicola vulgatus
B. fragilis ATCC25285 = assay: MIC against anaerobic bacteria; format: cell-based; conditions: Bacteroides fragilis; B. fragilis ATCC25285; read-out: MIC
C. perfringens ATCC13124 = assay: microbe, parasite or virus in culture; format: cell-based; conditions: Clostridium perfringens
B. bifidum JCM1122 = assay: MIC against anaerobic bacteria; format: cell-based; conditions: Bifidobacterium bifidum
F. necrophorum ATCC25286 = assay: MIC against anaerobic bacteria; format: cell-based; conditions: Fusobacterium necrophorum
P. vulgaris CN-329 = assay: MIC against aerobic bacteria; conditions: Proteus vulgaris, CN329
E. limosum ATCC8486 = assay: MIC against anaerobic bacteria; format: cell-based; conditions: Eubacterium limosum; E. limosum ATCC8486; read-out: MIC
anaerobic bacteria = assay: antibacterial activity against anaerobic bacteria (summary); format: cell-based; conditions: in words
E. aerofaciens ATCC25986 = assay: MIC against anaerobic bacteria; format: cell-based; conditions: Collinsella aerofaciens, ATCC25986
P. anaerobius B-38 = assay: MIC against anaerobic bacteria; format: cell-based; conditions: Peptostreptococcus anaerobius, B38
L. ruminis ATCC27780 = assay: MIC against anaerobic bacteria; format: cell-based; conditions: L. ruminis ATCC27780; read-out: MIC
P. micros VPI5464-1 = assay: MIC against anaerobic bacteria; format: cell-based; conditions: Parvimonas micra, VPI54641
[1] = test system: B. thetaiotaomicron WAL3304; assay: MIC against anaerobic bacteria; format: cell-based; conditions: Bacteroides thetaiotaomicron
[2] = filter paper electrophoresis and bioautography (acidic property); format: physicochemical
Excerpt: Other physicochemical properties of PB-6042s in the form of sodium salt are listed below.

C. difficile ATCC17857 = assay: MIC against anaerobic bacteria; format: cell-based; conditions: Clostridioides difficile
[3] = test system: S. constellatus ATCC27823; assay: MIC against anaerobic bacteria; format: cell-based; conditions: Streptococcus constellatus
P. prevotii ATCC9321 = assay: MIC against anaerobic bacteria; format: cell-based; conditions: Anaerococcus prevotii, ATCC9321
S. pneumoniae TYPE 1 = assay: MIC against aerobic bacteria; conditions: Streptococcus pneumoniae, TYPE1
S. aureus FDA JC-1 = assay: MIC against aerobic bacteria; conditions: Staphylococcus aureus, FDAJC1
K. pneumoniae SR1 = assay: MIC against aerobic bacteria; conditions: Klebsiella pneumoniae
[4] = test system: B. melaninogenicus GAI0413; assay: MIC against anaerobic bacteria; format: cell-based
F. mortiferum ATCC9817 = assay: MIC against anaerobic bacteria; format: cell-based; conditions: Fusobacterium mortiferum
L. plantarum JCM1100 = assay: MIC against anaerobic bacteria; format: cell-based; conditions: Lactiplantibacillus plantarum
C. perfringens SAKAI = assay: microbe, parasite or virus in culture; format: cell-based; conditions: Clostridium perfringens
B. distasonis JU-11-1 = assay: MIC against anaerobic bacteria; format: cell-based; conditions: Parabacteroides distasonis, JU111
E. coli NIHJ JC-2 = assay: MIC against aerobic bacteria; conditions: Escherichia coli, NIHJJC2
[5] = test system: P. asaccharolyticus ATCC14963; assay: MIC against anaerobic bacteria; format: cell-based; conditions: Peptoniphilus asaccharolyticus, ATCC14963
P. aeruginosa A25619 = assay: MIC against aerobic bacteria; conditions: Pseudomonas aeruginosa
F. nucleatum ATCC25586 = assay: MIC against anaerobic bacteria; format: cell-based; conditions: Fusobacterium nucleatum
F. varium ATCC8501 = assay: MIC against anaerobic bacteria; format: cell-based; conditions: Fusobacterium varium
B. ovatus 2505 = assay: MIC against anaerobic bacteria; format: cell-based; conditions: Bacteroides ovatus
S. pyogenes C-203 = assay: MIC against aerobic bacteria; conditions: Streptococcus pyogenes, C203
[6] = B. fragilis GM7000, read-out: MIC
[7] = B. vulgatus ATCC29327, read-out: MIC
[8] = B. bifidum JCM1122, read-out: MIC
[9] = B. thetaiotaomicron WAL3304, read-out: MIC
[10] = F. mortiferum ATCC9817, read-out: MIC
[11] = L. plantarum JCM1100, read-out: MIC
[12] = B. distasonis JU-11-1, read-out: MIC
[13] = B. melaninogenicus GAI0413, read-out: MIC

| SMILES | MIC (P. acens ATCC11827) [µg/mL] | MIC (S. aureus SR14(R)) [µg/mL] | MIC (B. fragilis ATCC25285) [µg/mL] | MIC (C. perfringens ATCC13124) [µg/mL] | MIC (F. necrophorum ATCC25286) [µg/mL] | MIC (P. vulgaris CN-329) [µg/mL] | MIC (E. limosum ATCC8486) [µg/mL] | growth inhibition of anaerobic bacteria (anaerobic bacteria) | MIC (E. aerofaciens ATCC25986) [µg/mL] | MIC (P. anaerobius B-38) [µg/mL] | MIC (L. ruminis ATCC27780) [µg/mL] | MIC (P. micros VPI5464-1) [µg/mL] | acidic property [2] | MIC (C. difficile ATCC17857) [µg/mL] | MIC [3] [µg/mL] | MIC (P. prevotii ATCC9321) [µg/mL] | MIC (S. pneumoniae TYPE 1) [µg/mL] | MIC (S. aureus FDA JC-1) [µg/mL] | MIC (K. pneumoniae SR1) [µg/mL] | MIC (C. perfringens SAKAI) [µg/mL] | also measured |
| --- | --- | --- | --- | --- | --- | --- | --- | --- | --- | --- | --- | --- | --- | --- | --- | --- | --- | --- | --- | --- | --- |
| C=C1OC(=O)C(C(=O)CCC/C=C\CCCCCC)=C1O [PB-6042B] | 3.13 (≈ 10.7 µM) | 12.5 (≈ 42.8 µM) | 3.13 (≈ 10.7 µM) | 6.25 (≈ 21.4 µM) | 12.5 (≈ 42.8 µM) | > 100 | 3.13 (≈ 10.7 µM) | inhibit the growth of anaerobic bacteria, selectively | 6.25 (≈ 21.4 µM) | 3.13 (≈ 10.7 µM) | 3.13 (≈ 10.7 µM) | 1.56 (≈ 5.34 µM) | acidic substances | 1.56 (≈ 5.34 µM) | 1.56 (≈ 5.34 µM) | 6.25 (≈ 21.4 µM) | 12.5 (≈ 42.8 µM) | 12.5 (≈ 42.8 µM) | > 100 | 6.25 (≈ 21.4 µM) | MIC (E. lentum II-1): 6.25 µg/mL (≈ 21.4 µM); MIC (B. adolescentis JCM1250; JCM1250): 6.25 µg/mL (≈ 21.4 µM); MIC (B. fragilis GM7000; [6]): 3.13 µg/mL (≈ 10.7 µM); MIC (B. longum ATCC15707; ATCC15707): 6.25 µg/mL (≈ 21.4 µM); MIC (B. vulgatus ATCC29327; [7]): 3.13 µg/mL (≈ 10.7 µM); MIC (B. bifidum JCM1122; [8]): 12.5 µg/mL (≈ 42.8 µM); MIC [1, 9]: 3.13 µg/mL (≈ 10.7 µM); MIC ([4]; GAI0413): 6.25 µg/mL (≈ 21.4 µM); MIC (F. mortiferum ATCC9817; [10]): 25 µg/mL (≈ 85.5 µM); MIC (L. plantarum JCM1100; [11]): 12.5 µg/mL (≈ 42.8 µM); MIC (B. distasonis JU-11-1; [12]): 3.13 µg/mL (≈ 10.7 µM); MIC (E. coli NIHJ JC-2): > 100 µg/mL; MIC [5]: 6.25 µg/mL (≈ 21.4 µM); MIC (P. aeruginosa A25619): > 100 µg/mL; MIC (F. nucleatum ATCC25586): 12.5 µg/mL (≈ 42.8 µM); MIC (F. varium ATCC8501): > 100 µg/mL; MIC (B. ovatus 2505; B. ovatus 2505, read-out: MIC): 3.13 µg/mL (≈ 10.7 µM); MIC (S. pyogenes C-203): 12.5 µg/mL (≈ 42.8 µM) |
| C=C1OC(=O)C(C(=O)CCCCCCCCCCC)=C1O [PB-6042C] | 0.78 (≈ 2.65 µM) | > 100 | 1.56 (≈ 5.3 µM) | 3.13 (≈ 10.6 µM) | 12.5 (≈ 42.5 µM) | > 100 | 1.56 (≈ 5.3 µM) | inhibit the growth of anaerobic bacteria, selectively | 3.13 (≈ 10.6 µM) | 0.78 (≈ 2.65 µM) | 1.56 (≈ 5.3 µM) | 0.78 (≈ 2.65 µM) | acidic substances | 0.78 (≈ 2.65 µM) | 0.78 (≈ 2.65 µM) | 3.13 (≈ 10.6 µM) | 12.5 (≈ 42.5 µM) | > 100 | > 100 | 3.13 (≈ 10.6 µM) | MIC (E. lentum II-1): 3.13 µg/mL (≈ 10.6 µM); MIC (B. adolescentis JCM1250; B. adolescentis JCM1250, read-out: MIC): 0.78 µg/mL (≈ 2.65 µM); MIC (B. fragilis GM7000; GM7000): 3.13 µg/mL (≈ 10.6 µM); MIC (B. longum ATCC15707; ATCC15707): 3.13 µg/mL (≈ 10.6 µM); MIC (B. vulgatus ATCC29327; ATCC29327): 3.13 µg/mL (≈ 10.6 µM); MIC (B. bifidum JCM1122; [8]): 6.25 µg/mL (≈ 21.2 µM); MIC ([1]; WAL3304): 3.13 µg/mL (≈ 10.6 µM); MIC [4, 13]: 6.25 µg/mL (≈ 21.2 µM); MIC (F. mortiferum ATCC9817; [10]): 25 µg/mL (≈ 84.9 µM); MIC (L. plantarum JCM1100; [11]): 6.25 µg/mL (≈ 21.2 µM); MIC (B. distasonis JU-11-1): 3.13 µg/mL (≈ 10.6 µM); MIC (E. coli NIHJ JC-2): > 100 µg/mL; MIC [5]: 3.13 µg/mL (≈ 10.6 µM); MIC (P. aeruginosa A25619): > 100 µg/mL; MIC (F. nucleatum ATCC25586): 12.5 µg/mL (≈ 42.5 µM); MIC (F. varium ATCC8501): > 100 µg/mL; MIC (B. ovatus 2505; 2505): 3.13 µg/mL (≈ 10.6 µM); MIC (S. pyogenes C-203): 12.5 µg/mL (≈ 42.5 µM) |
| C=C1OC(=O)C(C(=O)CCCCCCCCC)=C1O [PB-6042A] | 3.13 (≈ 11.8 µM) | > 100 | 3.13 (≈ 11.8 µM) | 12.5 (≈ 46.9 µM) | 6.25 (≈ 23.5 µM) | > 100 | 6.25 (≈ 23.5 µM) | inhibit the growth of anaerobic bacteria, selectively | 12.5 (≈ 46.9 µM) | 3.13 (≈ 11.8 µM) | 6.25 (≈ 23.5 µM) | 1.56 (≈ 5.86 µM) | acidic substances | 3.13 (≈ 11.8 µM) | 3.13 (≈ 11.8 µM) | 12.5 (≈ 46.9 µM) | 25 (≈ 93.9 µM) | 25 (≈ 93.9 µM) | > 100 | 12.5 (≈ 46.9 µM) | MIC (E. lentum II-1; E. lentum II-1, read-out: MIC): 6.25 µg/mL (≈ 23.5 µM); MIC (B. adolescentis JCM1250; JCM1250): 12.5 µg/mL (≈ 46.9 µM); MIC (B. fragilis GM7000; [6]): 3.13 µg/mL (≈ 11.8 µM); MIC (B. longum ATCC15707; B. longum ATCC15707, read-out: MIC): 6.25 µg/mL (≈ 23.5 µM); MIC (B. vulgatus ATCC29327; [7]): 3.13 µg/mL (≈ 11.8 µM); MIC (B. bifidum JCM1122; JCM1122): 12.5 µg/mL (≈ 46.9 µM); MIC [1, 9]: 3.13 µg/mL (≈ 11.8 µM); MIC [4, 13]: 6.25 µg/mL (≈ 23.5 µM); MIC (F. mortiferum ATCC9817; ATCC9817): 12.5 µg/mL (≈ 46.9 µM); MIC (L. plantarum JCM1100; JCM1100): 12.5 µg/mL (≈ 46.9 µM); MIC (B. distasonis JU-11-1; [12]): 3.13 µg/mL (≈ 11.8 µM); MIC (E. coli NIHJ JC-2): > 100 µg/mL; MIC [5]: 12.5 µg/mL (≈ 46.9 µM); MIC (P. aeruginosa A25619): > 100 µg/mL; MIC (F. nucleatum ATCC25586): 6.25 µg/mL (≈ 23.5 µM); MIC (F. varium ATCC8501): > 100 µg/mL; MIC (B. ovatus 2505; B. ovatus 2505, read-out: MIC): 3.13 µg/mL (≈ 11.8 µM); MIC (S. pyogenes C-203): 25 µg/mL (≈ 93.9 µM) |
